Peptide text beside a SMILES is read from it. * marks the point of attachment. OBn = c1ccc(CO*)cc1
Experiments:
[1] = tested on: p(dGdC) (DNA, polymer) GC; experiment: fluorescence titration, Scatchard (McGhee-von Hippel) fit; conditions: Na+ (sodium cacodylate, 50 mM); pH 7.0, 25 °C, <1% DMSO; n fixed 0.3; polynucleotide as phosphates; error half log unit; per base
[2] = tested on: p(dAdT) (DNA, polymer) AT; experiment: as above; conditions: Na+ (sodium cacodylate, 50 mM); pH 7.0, 25 °C, <1% DMSO; n fixed 0.3; polynucleotide as phosphates; error half log unit; per base
[3] = tested on: dG12-dC12 (DNA, duplex) GGGGGGGGGGGG/CCCCCCCCCCCC; experiment: HPLC retention shift; conditions: NH4+ (ammonium acetate, 100 mM); pH 7.0; retention retarded by about 0.3 min with compound; no alkylation on irradiation
[4] = tested on: dA10-dT10 (DNA, duplex) AAAAAAAAAA/TTTTTTTTTT; experiment: HPLC retention shift; conditions: NH4+ (ammonium acetate, 100 mM); pH 7.0; signal about 0.5 min earlier with compound
[5] = tested on: dA10-dT10 (DNA, duplex) AAAAAAAAAA/TTTTTTTTTT; experiment: photoalkylation (300 nm irradiation), HPLC; conditions: NH4+ (ammonium acetate, 100 mM); covalent; pH 7.0; 15 or 60 min; new broad signal at about 16.5 min
pApU (RNA, polymer) A/U = experiment: fluorescence titration, Scatchard (McGhee-von Hippel) fit; conditions: Na+ (sodium cacodylate, 50 mM); pH 7.0, 25 °C, <1% DMSO; n fixed 0.3; polynucleotide as phosphates; error half log unit; per base

| Compound | log Ka [1] | log Ka [2] | binding [3] | binding [4] | binding [5] | log Ka (pApU (RNA, polymer) A/U) |
| --- | --- | --- | --- | --- | --- | --- |
| N[C@@H](Cc1c[nH]c2ccccc12)C(=O)N[C@@H](Cc1c[nH]c2ccccc12)C(=O)N[C@@H](Cc1ccc(O)cc1)C(=O)OCc1ccccc1 (H-Trp-Trp-Tyr-OBn) | 6.5 log (M^-1) | – | – | – | – | – |
| CN(C)Cc1cc(C[C@H](NC(=O)[C@H](Cc2c[nH]c3ccccc23)NC(=O)[C@@H](N)Cc2c[nH]c3ccccc23)C(=O)OCc2ccccc2)ccc1O | 6.4 log (M^-1) | 5.9 log (M^-1) | yes | yes | yes | 6.0 log (M^-1) |

Reference: publication PMC8306964 (2021)
